Measurements from patent US20180042918A1, “RESPIRATORY INFECTION TREATING AGENT” (KYORIN PHARMACEUTICAL CO., LTD., priority 2015, published 2018).
≈ marks a conversion by molar mass, not a printed value. Read-outs that look alike come from different tables or passages of the source. Marks after values point to notes of the source that are not given here.

Legend:
[1] = tested on: S. pneumoniae ATCC49619; assay: Frequency of development of resistant bacteria; assay type: cell-based, Streptococcus pneumoniae; conditions: about 70 hours
Experimental: (§1) S. aureus ATCC29213 is Staphylococcus aureus, S. pneumoniae ATCC49619 is Streptococcus pneumoniae, and E. coli ATCC25922 is Escherichia coli. […]
(§2) The frequency of development of resistant bacteria was calculated by dividing the number of colonies developed on an agar medium having each drug concentration by the number of initially inoculated bacteria.

[2] = molecular target: QUINOLONE RESISTANT Topoisomerase IV (S. aureus) (Staphylococcus aureus, UniProt P0C1U9); assay: Enzyme inhibitory activity, decatenation of kinetoplast DNA; assay type: biochemical; conditions: read-out: IC50 VALUE, QUINOLONE RESISTANT Topoisomerase IV (converted)
Experimental: (§3) Agents Chemother. 45: 3544-3547 (2001). […] The measurement was performed in the same manner as in Test Example 3. Similarly, the inhibitory activities of ciproxacin, levofloxacin, and garenoxacin were measured. The results were compared.

[3] = molecular target: Topoisomerase IV (S. aureus) (Staphylococcus aureus, UniProt P0C1S7+P0C1U9); assay: as above; assay type: biochemical; conditions: S. aureus enzyme; read-out: IC50 VALUE, Topoisomerase IV (converted)
Experimental: as §3

[4] = consecutive administration, daily dose of 500 mg; cited from earlier work
[5] = tested on: S. pneumoniae SN9981; assay: microbe, parasite or virus in culture; assay type: cell-based; conditions: Streptococcus pneumoniae
[6] = tested on: S. aureus MS5935 3rd; assay: microbe, parasite or virus in culture; assay type: cell-based; conditions: Staphylococcus aureus, MS59353RD
[7] = tested on: S. pneumoniae ST9941; assay: microbe, parasite or virus in culture; assay type: cell-based; conditions: Streptococcus pneumoniae
[8] = molecular target: Topoisomerase IV (S. pneumoniae IID553) (Streptococcus pneumoniae serotype 4, UniProt P72525+Q59961); assay: Enzyme inhibitory activity, decatenation of kinetoplast DNA
[9] = tested on: S. pneumoniae ATCC49619; assay: microbe, parasite or virus in culture; assay type: cell-based; conditions: Streptococcus pneumoniae
[10] = tested on: S. pneumoniae NF9884; assay: microbe, parasite or virus in culture; assay type: cell-based; conditions: Streptococcus pneumoniae
[11] = tested on: E. coli ATCC25922; assay: microbe, parasite or virus in culture; assay type: cell-based; conditions: Escherichia coli
[12] = tested on: S. aureus ATCC29213; assay: Frequency of development of resistant bacteria; assay type: cell-based, Staphylococcus aureus; conditions: about 70 hours
Experimental: as §1, §2

[13] = tested on: S. pneumoniae SF9863; assay: microbe, parasite or virus in culture; assay type: cell-based; conditions: Streptococcus pneumoniae
[14] = tested on: S. aureus ATCC29213; assay: MIC of strain used for resistance frequency test; assay type: cell-based; conditions: Staphylococcus aureus, ATCC29213
[15] = tested on: S. aureus MS5935 1st; assay: microbe, parasite or virus in culture; assay type: cell-based; conditions: Staphylococcus aureus, MS59351ST
[16] = tested on: S. aureus MS5935; assay: Antibacterial activity against quinolone-resistant strain in vitro, CLSI dilution; assay type: cell-based; conditions: Staphylococcus aureus; S. aureus MS5935, PARENT STRAIN, gyrA None, grlA None
[17] = molecular target: DNA gyrase derived from S. pneumoniae IID553 (Streptococcus pneumoniae serotype 4, UniProt P0A4L9+P72524); assay: Enzyme inhibitory activity, supercoiling of relaxed pBR322
[18] = tested on: S. aureus MS5935 2nd; assay: microbe, parasite or virus in culture; assay type: cell-based; conditions: Staphylococcus aureus, MS59352ND
[19] = tested on: S. pneumoniae KY-9; assay: Antibacterial activity against Streptococcus pneumoniae in vitro, CLSI microdilution; assay type: cell-based; conditions: KY9
Experimental: The antibacterial activities in vitro of the compound D, garenoxacin, and levofloxacin against a strain in a mouse infected with Streptococcus pneumoniae (S. pneumonia KY-9) were measured in accordance with a CLSI microdilution method.

[20] = molecular target: QUINOLONE RESISTANT DNA gyrase (quinolone-resistant S. aureus) (Staphylococcus aureus, UniProt P20831); assay: Enzyme inhibitory activity, supercoiling of relaxed pBR322; assay type: biochemical; conditions: average of three or average ± SD, read-out: IC50 VALUE, QUINOLONE RESISTANT DNA gyrase (converted)
Experimental: as §3

[21] = molecular target: DNA gyrase derived from S. aureus (Staphylococcus aureus, UniProt P0A0K8+P20831); assay: as above; assay type: biochemical; conditions: S. aureus enzyme; average of three or average ± SD; read-out: IC50 VALUE, DNA gyrase (converted)
Experimental: as §3

[22] = tested on: S. pneumoniae CF9842; assay: microbe, parasite or virus in culture; assay type: cell-based; conditions: Streptococcus pneumoniae
[23] = tested on: S. aureus MS5935 4th; assay: microbe, parasite or virus in culture; assay type: cell-based; conditions: Staphylococcus aureus, MS59354TH
[24] = tested on: S. pneumoniae GF9821; assay: microbe, parasite or virus in culture; assay type: cell-based; conditions: Streptococcus pneumoniae
[25] = tested on: S. pneumoniae IID553; assay: microbe, parasite or virus in culture; assay type: cell-based; conditions: Streptococcus pneumoniae
[26] = tested on: H. influenzaes (26 STRAINS); assay: Antibacterial activity against clinically isolated strains, MIC90; assay type: cell-based; conditions: Haemophilus influenzae, 26 clinically isolated strains
Experimental: (§4) The antibacterial activities in vitro of the compound D, garenoxacin, and levofloxacin against each clinically isolated strain of Streptococcus pneumoniae, Moraxella catarrhalis, and Haemophilus influenzae were measured in accordance with a CLSI microdilution method or a CLSI agar dilution method. A MIC90 value was the minimum concentration in which the growth of 90% strain of all the measured strains was inhibited.

[27] = tested on: M. catarrhalis (26 STRAINS); assay: as above; assay type: cell-based; conditions: Moraxella catarrhalis, 26 clinically isolated strains
Experimental: as §4

[28] = tested on: PCG-LOW SENSITIVE S. pneumoniae (22 STRAINS); assay: as above; assay type: cell-based; conditions: Streptococcus pneumoniae, 22 clinically isolated strains
Experimental: as §4

[29] = tested on: PSSP (26 STRAINS); assay: as above; assay type: cell-based; conditions: Streptococcus pneumoniae, 26 clinically isolated strains
Experimental: as §4

[30] = tested on: S. aureus MS5935 gyrA mutant; assay: microbe, parasite or virus in culture; assay type: cell-based; conditions: Staphylococcus aureus
[31] = tested on: E. coli ATCC25922; assay: Frequency of development of resistant bacteria; assay type: cell-based, Escherichia coli; conditions: about 70 hours
Experimental: as §1, §2

[32] = cited from earlier work

Which results are given for `C[C@H]1COc2c(N3CCN(C)CC3)c(F)cc3c(=O)c(C(=O)O)cn1c23` [LVFX, levofloxacin]?
FREQUENCY OF DEVELOPMENT OF RESISTANT BACTERIA (AVERAGE OF TWO MEASURED VALUES) ([1]; S. pneumoniae ATCC49619, 4 × MIC): <1.1 × 10^−8; FREQUENCY OF DEVELOPMENT OF RESISTANT BACTERIA (AVERAGE OF TWO MEASURED VALUES) ([1]; S. pneumoniae ATCC49619, 8 × MIC): <1.1 × 10^−8; FREQUENCY OF DEVELOPMENT OF RESISTANT BACTERIA (AVERAGE OF TWO MEASURED VALUES) ([1]; S. pneumoniae ATCC49619, 16 × MIC): <1.1 × 10^−8; IC50 [2]: 238 µM; IC50 [3]: 7.75 µM; AUC [4]: 49670 ng·h/mL; Cmax [4]: 6320 ng/mL; MIC [5]: 16 µg/mL (≈ 44.3 µM); MIC [6]: 32 µg/mL (≈ 88.6 µM); MIC [7]: 16 µg/mL (≈ 44.3 µM); IC50 [8]: 30.4 µM; MIC [9]: 1 µg/mL (≈ 2.77 µM); MIC [10]: 2 µg/mL (≈ 5.53 µM); MIC [11]: 0.015 µg/mL (≈ 0.0415 µM); FREQUENCY OF DEVELOPMENT OF RESISTANT BACTERIA (AVERAGE OF TWO MEASURED VALUES) ([12]; S. aureus ATCC29213, 4 × MIC): <2.1 × 10^−9; FREQUENCY OF DEVELOPMENT OF RESISTANT BACTERIA (AVERAGE OF TWO MEASURED VALUES) ([12]; S. aureus ATCC29213, 8 × MIC): <2.1 × 10^−9; FREQUENCY OF DEVELOPMENT OF RESISTANT BACTERIA (AVERAGE OF TWO MEASURED VALUES) ([12]; S. aureus ATCC29213, 16 × MIC): <2.1 × 10^−9; MIC [13]: 2 µg/mL (≈ 5.53 µM); MIC [14]: 0.125 µg/mL; MIC [15]: 0.5 µg/mL (≈ 1.38 µM); MIC [16]: 0.125 µg/mL (≈ 0.346 µM); IC50 [17]: 443 µM; MIC [18]: 8 µg/mL (≈ 22.1 µM); MIC [19]: 1 µg/mL (≈ 2.77 µM); IC50 [20]: 3600 µM; IC50 [21]: 44.3 µM; MIC [22]: 2 µg/mL (≈ 5.53 µM); MIC [23]: 128 µg/mL (≈ 354 µM); MIC [24]: 2 µg/mL (≈ 5.53 µM); MIC [25]: 1 µg/mL (≈ 2.77 µM); MIC90 [26]: 0.03 µg/mL (≈ 0.083 µM); MIC90 [27]: 0.03 µg/mL (≈ 0.083 µM); MIC90 [28]: 1 µg/mL (≈ 2.77 µM); MIC90 [29]: 1 µg/mL (≈ 2.77 µM); MIC [30]: 0.25 µg/mL (≈ 0.692 µM); FREQUENCY OF DEVELOPMENT OF RESISTANT BACTERIA (AVERAGE OF TWO MEASURED VALUES) ([31]; E. coli ATCC25922, 4 × MIC): 3.9 × 10^−9*; FREQUENCY OF DEVELOPMENT OF RESISTANT BACTERIA (AVERAGE OF TWO MEASURED VALUES) ([31]; E. coli ATCC25922, 8 × MIC): <1.9 × 10^−9; FREQUENCY OF DEVELOPMENT OF RESISTANT BACTERIA (AVERAGE OF TWO MEASURED VALUES) ([31]; E. coli ATCC25922, 16 × MIC): <1.9 × 10^−9

With `CC1COc2c(N3CCN(C)CC3)c(F)cc3c(=O)c(C(=O)O)cn1c23` (stereo not shown) [ofloxacin] as the molecule, how does the “tissue distribution ratio into the lung tissue” value ([32]; rat, 1.0 hour after oral administration) read?
The value was 2.7.

Which “tissue distribution ratio into the lung tissue” value ([32]; male rat, 0.5 hours after single oral administration) does the source give for `N[C@@H]1CN(c2c(F)cc3c(=O)c(C(=O)O)cn([C@@H]4C[C@@H]4F)c3c2Cl)CC12CC2` [sitafloxacin] here?
Its value is 2.7.
